{"source": "the kinase profiling compilation of Christmann-Franck et al. (2016)", "test_in_all_cases": "KINOMEscan competition binding", "key": {"PAK7 (human)": {"biological_target": "PAK7 (human) (UniProt Q9P286)"}, "PRKACA (human)": {"biological_target": "PRKACA (human) (UniProt P17612)"}, "EPHA7 (human)": {"biological_target": "EPHA7 (human) (UniProt Q15375)", "sequence (Q15375 whole entry, looked up)": "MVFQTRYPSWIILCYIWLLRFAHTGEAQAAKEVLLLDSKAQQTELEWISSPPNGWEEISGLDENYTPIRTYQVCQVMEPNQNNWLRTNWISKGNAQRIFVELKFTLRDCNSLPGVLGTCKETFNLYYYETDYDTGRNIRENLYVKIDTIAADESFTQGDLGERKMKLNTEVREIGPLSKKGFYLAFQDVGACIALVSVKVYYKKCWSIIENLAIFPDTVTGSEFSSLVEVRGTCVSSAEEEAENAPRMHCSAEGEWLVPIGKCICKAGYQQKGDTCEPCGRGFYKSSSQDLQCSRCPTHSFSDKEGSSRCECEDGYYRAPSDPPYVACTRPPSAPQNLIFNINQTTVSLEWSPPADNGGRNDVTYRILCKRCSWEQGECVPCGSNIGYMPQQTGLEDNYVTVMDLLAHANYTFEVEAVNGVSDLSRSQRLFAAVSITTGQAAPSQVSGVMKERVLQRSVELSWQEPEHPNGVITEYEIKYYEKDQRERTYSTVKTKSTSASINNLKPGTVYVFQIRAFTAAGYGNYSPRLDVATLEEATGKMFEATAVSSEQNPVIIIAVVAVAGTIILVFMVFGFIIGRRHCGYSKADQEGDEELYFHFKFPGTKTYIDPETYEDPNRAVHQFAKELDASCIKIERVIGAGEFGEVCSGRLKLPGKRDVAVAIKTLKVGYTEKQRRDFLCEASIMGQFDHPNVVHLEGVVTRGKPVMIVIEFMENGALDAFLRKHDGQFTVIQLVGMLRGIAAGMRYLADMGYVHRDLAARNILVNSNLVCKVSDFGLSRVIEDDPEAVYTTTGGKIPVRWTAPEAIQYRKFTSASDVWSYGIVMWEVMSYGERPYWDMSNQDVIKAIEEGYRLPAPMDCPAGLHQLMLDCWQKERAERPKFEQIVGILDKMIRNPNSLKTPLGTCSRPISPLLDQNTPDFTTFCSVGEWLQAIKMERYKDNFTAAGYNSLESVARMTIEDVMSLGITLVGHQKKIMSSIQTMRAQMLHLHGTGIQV"}, "TNK2 (human)": {"biological_target": "TNK2 (human) (UniProt Q07912)"}, "CSNK1G1 (human)": {"biological_target": "CSNK1G1 (human) (UniProt Q9HCP0)"}, "ABL1 (human)": {"biological_target": "ABL1 (human) (UniProt P00519)"}, "PIM1 (human)": {"biological_target": "PIM1 (human) (UniProt P11309)", "sequence (P11309 whole entry, looked up)": "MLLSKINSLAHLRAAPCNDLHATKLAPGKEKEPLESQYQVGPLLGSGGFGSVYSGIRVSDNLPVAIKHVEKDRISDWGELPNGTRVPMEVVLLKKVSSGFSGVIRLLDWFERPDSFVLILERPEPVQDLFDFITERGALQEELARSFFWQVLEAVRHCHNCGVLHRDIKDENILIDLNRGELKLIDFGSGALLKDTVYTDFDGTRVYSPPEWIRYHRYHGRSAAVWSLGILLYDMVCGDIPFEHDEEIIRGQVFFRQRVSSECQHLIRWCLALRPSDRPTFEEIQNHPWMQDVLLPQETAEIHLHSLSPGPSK"}, "PDGFRB (human)": {"biological_target": "PDGFRB (human) (UniProt P09619)", "sequence (P09619 whole entry, looked up)": "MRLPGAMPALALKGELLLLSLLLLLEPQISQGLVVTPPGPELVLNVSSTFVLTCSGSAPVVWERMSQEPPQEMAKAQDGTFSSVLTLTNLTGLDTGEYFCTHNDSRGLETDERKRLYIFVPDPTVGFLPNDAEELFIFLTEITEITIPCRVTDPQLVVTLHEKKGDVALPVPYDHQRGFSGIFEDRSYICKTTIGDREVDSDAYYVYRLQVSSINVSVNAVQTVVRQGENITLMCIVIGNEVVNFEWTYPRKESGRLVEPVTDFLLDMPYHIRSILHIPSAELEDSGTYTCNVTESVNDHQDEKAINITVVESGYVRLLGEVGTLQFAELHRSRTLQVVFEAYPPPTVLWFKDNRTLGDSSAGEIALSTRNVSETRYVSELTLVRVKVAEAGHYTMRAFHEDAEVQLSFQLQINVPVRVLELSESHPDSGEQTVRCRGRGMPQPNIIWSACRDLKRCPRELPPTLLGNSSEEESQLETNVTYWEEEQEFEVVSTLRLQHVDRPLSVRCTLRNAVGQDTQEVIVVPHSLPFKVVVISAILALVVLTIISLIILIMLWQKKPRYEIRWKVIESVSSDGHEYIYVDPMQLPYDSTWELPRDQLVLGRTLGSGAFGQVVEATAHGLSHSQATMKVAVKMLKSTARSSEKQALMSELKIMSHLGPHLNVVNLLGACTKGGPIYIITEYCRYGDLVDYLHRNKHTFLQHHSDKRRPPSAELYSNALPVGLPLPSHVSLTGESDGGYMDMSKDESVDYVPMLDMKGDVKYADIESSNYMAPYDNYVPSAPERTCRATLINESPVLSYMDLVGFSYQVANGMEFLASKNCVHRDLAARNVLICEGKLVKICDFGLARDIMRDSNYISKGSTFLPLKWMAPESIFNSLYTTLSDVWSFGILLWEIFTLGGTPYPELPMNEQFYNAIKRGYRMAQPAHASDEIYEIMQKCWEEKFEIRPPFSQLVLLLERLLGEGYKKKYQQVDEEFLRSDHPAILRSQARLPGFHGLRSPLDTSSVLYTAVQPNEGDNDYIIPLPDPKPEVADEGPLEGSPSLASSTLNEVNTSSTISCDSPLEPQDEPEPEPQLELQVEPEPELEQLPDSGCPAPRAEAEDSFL"}, "LCK (human)": {"biological_target": "LCK (human) (UniProt P06239)"}, "ABL2 (human)": {"biological_target": "ABL2 (human) (UniProt P42684)"}, "SRC (human)": {"biological_target": "SRC (human) (UniProt P12931)"}, "CAMK2G (human)": {"biological_target": "CAMK2G (human) (UniProt Q13555)"}, "CAMK2A (human)": {"biological_target": "CAMK2A (human) (UniProt Q9UQM7)"}, "FYN (human)": {"biological_target": "FYN (human) (UniProt P06241)"}, "KDR (human)": {"biological_target": "KDR (human) (UniProt P35968)"}, "LIMK1 (human)": {"biological_target": "LIMK1 (human) (UniProt P53667)"}, "[1]": {"biological_target": "ABL1 (human), P00519 [T315I]"}, "PAK6 (human)": {"biological_target": "PAK6 (human) (UniProt Q9NQU5)"}, "NEK2 (human)": {"biological_target": "NEK2 (human) (UniProt P51955)"}, "CAMKK1 (human)": {"biological_target": "CAMKK1 (human) (UniProt Q8N5S9)"}, "NTRK1 (human)": {"biological_target": "NTRK1 (human) (UniProt P04629)"}, "FGFR2 (human)": {"biological_target": "FGFR2 (human) (UniProt P21802)", "sequence (P21802 whole entry, looked up)": "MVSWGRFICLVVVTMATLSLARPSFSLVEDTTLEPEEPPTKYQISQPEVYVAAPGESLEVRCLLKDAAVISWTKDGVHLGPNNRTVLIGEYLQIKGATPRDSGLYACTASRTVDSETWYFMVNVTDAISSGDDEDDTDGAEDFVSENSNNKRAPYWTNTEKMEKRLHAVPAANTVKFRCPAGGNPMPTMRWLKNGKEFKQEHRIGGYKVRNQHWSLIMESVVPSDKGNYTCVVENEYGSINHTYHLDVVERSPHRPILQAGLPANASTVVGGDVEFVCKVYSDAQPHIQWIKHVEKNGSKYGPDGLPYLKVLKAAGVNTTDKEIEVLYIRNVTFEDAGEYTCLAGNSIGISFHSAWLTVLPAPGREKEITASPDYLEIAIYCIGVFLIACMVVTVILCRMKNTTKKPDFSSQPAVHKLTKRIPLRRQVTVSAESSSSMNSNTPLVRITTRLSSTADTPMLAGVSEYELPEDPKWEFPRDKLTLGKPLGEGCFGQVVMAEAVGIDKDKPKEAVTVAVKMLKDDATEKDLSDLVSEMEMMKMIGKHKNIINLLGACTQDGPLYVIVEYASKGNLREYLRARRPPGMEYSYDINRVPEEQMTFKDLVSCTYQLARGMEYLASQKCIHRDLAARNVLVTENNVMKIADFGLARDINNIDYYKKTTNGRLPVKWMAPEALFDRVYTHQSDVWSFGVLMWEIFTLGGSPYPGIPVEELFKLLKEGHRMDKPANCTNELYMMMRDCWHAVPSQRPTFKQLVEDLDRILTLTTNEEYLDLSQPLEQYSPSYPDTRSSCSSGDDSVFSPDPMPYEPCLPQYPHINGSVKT"}, "CLK1 (human)": {"biological_target": "CLK1 (human) (UniProt P49759)"}, "[2]": {"biological_target": "JAK1 JH1 catalytic (human) (UniProt P23458)"}, "[3]": {"biological_target": "ABL1 (human), P00519 [M351T]"}, "CLK3 (human)": {"biological_target": "CLK3 (human) (UniProt P49761)"}, "LYN (human)": {"biological_target": "LYN (human) (UniProt P07948)"}, "FLT3 (human)": {"biological_target": "FLT3 (human) (UniProt P36888)"}, "[4]": {"biological_target": "ABL1 (human), P00519 [E255K]"}, "PKMYT1 (human)": {"biological_target": "PKMYT1 (human) (UniProt Q99640)", "sequence (Q99640 whole entry, looked up)": "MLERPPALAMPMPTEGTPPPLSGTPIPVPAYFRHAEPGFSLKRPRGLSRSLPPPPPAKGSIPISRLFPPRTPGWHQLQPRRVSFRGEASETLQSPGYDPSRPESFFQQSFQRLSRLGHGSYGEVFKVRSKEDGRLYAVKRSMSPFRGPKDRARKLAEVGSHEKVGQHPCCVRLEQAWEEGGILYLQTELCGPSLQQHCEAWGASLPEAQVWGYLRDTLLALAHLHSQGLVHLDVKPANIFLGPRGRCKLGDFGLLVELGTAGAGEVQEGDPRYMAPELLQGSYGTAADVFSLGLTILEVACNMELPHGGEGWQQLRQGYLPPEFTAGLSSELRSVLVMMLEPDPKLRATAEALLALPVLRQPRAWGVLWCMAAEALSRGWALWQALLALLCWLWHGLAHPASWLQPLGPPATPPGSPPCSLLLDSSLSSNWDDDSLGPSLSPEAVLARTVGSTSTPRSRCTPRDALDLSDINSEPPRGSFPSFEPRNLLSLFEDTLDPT"}, "MYLK2 (human)": {"biological_target": "MYLK2 (human) (UniProt Q9H1R3)"}, "EPHA2 (human)": {"biological_target": "EPHA2 (human) (UniProt P29317)"}, "[5]": {"biological_target": "ABL1 (human), P00519 [Y253F]"}, "STK10 (human)": {"biological_target": "STK10 (human) (UniProt O94804)"}, "ERBB2 (human)": {"biological_target": "ERBB2 (human) (UniProt P04626)"}, "STK17B (human)": {"biological_target": "STK17B (human) (UniProt O94768)"}, "NEK6 (human)": {"biological_target": "NEK6 (human) (UniProt Q9HC98)", "sequence (Q9HC98 whole entry, looked up)": "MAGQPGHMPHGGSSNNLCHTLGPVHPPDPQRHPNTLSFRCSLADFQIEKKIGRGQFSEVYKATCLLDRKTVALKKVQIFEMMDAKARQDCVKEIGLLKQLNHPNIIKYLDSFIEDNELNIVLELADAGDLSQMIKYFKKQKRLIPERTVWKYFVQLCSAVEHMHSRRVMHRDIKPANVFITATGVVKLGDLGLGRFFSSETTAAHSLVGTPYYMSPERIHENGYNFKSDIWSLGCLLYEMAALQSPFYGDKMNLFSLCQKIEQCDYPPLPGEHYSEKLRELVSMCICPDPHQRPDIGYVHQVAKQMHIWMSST"}, "CSK (human)": {"biological_target": "CSK (human) (UniProt P41240)"}, "CAMK1 (human)": {"biological_target": "CAMK1 (human) (UniProt Q14012)"}, "EPHA4 (human)": {"biological_target": "EPHA4 (human) (UniProt P54764)", "sequence (P54764 whole entry, looked up)": "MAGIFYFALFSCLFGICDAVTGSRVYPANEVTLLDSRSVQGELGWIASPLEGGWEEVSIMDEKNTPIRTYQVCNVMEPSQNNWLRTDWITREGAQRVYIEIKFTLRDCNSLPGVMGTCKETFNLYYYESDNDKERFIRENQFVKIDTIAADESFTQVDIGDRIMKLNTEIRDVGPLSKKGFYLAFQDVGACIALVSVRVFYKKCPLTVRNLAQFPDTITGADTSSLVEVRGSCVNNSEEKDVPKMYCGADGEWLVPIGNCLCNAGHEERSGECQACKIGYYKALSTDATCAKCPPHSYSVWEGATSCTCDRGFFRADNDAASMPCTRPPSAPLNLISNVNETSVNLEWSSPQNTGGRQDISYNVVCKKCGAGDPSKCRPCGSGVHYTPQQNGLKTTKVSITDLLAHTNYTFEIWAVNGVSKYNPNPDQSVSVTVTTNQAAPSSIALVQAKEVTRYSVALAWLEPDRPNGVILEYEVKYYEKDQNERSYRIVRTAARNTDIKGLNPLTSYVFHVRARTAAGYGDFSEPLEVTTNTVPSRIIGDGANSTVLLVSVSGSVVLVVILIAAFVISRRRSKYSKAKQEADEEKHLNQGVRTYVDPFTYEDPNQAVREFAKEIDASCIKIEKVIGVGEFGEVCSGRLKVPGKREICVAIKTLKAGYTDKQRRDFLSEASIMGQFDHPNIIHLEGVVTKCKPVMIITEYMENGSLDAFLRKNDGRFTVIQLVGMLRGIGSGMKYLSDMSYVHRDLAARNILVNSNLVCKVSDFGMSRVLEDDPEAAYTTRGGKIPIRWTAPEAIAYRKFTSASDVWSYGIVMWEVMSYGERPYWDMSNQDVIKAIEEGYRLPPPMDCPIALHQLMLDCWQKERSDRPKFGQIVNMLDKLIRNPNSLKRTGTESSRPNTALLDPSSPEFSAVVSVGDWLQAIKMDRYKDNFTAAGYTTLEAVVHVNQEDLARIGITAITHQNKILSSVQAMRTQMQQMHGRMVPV"}, "MAP3K5 (human)": {"biological_target": "MAP3K5 (human) (UniProt Q99683)"}, "PHKG1 (human)": {"biological_target": "PHKG1 (human) (UniProt Q16816)"}}, "data": [{"smiles": "O=C1c2ccccc2-c2n[nH]c3cccc1c23", "values": [{"measurement": "Kd", "setting": "PAK7 (human)", "value": "> 10", "unit": "µM"}, {"measurement": "Kd", "setting": "PRKACA (human)", "value": "> 10", "unit": "µM"}, {"measurement": "Kd", "setting": "EPHA7 (human)", "value": "> 10", "unit": "µM"}, {"measurement": "Kd", "setting": "TNK2 (human)", "value": "> 10", "unit": "µM"}, {"measurement": "Kd", "setting": "CSNK1G1 (human)", "value": 3.7, "unit": "µM"}, {"measurement": "Kd", "setting": "ABL1 (human)", "value": "> 10", "unit": "µM"}, {"measurement": "Kd", "setting": "PIM1 (human)", "value": "> 10", "unit": "µM"}, {"measurement": "Kd", "setting": "PDGFRB (human)", "value": "> 10", "unit": "µM"}, {"measurement": "Kd", "setting": "LCK (human)", "value": "> 10", "unit": "µM"}, {"measurement": "Kd", "setting": "ABL2 (human)", "value": "> 10", "unit": "µM"}, {"measurement": "Kd", "setting": "SRC (human)", "value": "> 10", "unit": "µM"}, {"measurement": "Kd", "setting": "CAMK2G (human)", "value": "> 10", "unit": "µM"}, {"measurement": "Kd", "setting": "CAMK2A (human)", "value": "> 10", "unit": "µM"}, {"measurement": "Kd", "setting": "FYN (human)", "value": "> 10", "unit": "µM"}, {"measurement": "Kd", "setting": "KDR (human)", "value": "> 10", "unit": "µM"}, {"measurement": "Kd", "setting": "LIMK1 (human)", "value": "> 10", "unit": "µM"}, {"measurement": "Kd", "setting": "[1]", "value": "> 10", "unit": "µM"}, {"measurement": "Kd", "setting": "PAK6 (human)", "value": "> 10", "unit": "µM"}, {"measurement": "Kd", "setting": "NEK2 (human)", "value": "> 10", "unit": "µM"}, {"measurement": "Kd", "setting": "CAMKK1 (human)", "value": "> 10", "unit": "µM"}, {"measurement": "Kd", "setting": "NTRK1 (human)", "value": "> 10", "unit": "µM"}, {"measurement": "Kd", "setting": "FGFR2 (human)", "value": 1.9, "unit": "µM"}, {"measurement": "Kd", "setting": "CLK1 (human)", "value": "> 10", "unit": "µM"}, {"measurement": "Kd", "setting": "[2]", "value": "> 10", "unit": "µM"}, {"measurement": "Kd", "setting": "[3]", "value": "> 10", "unit": "µM"}, {"measurement": "Kd", "setting": "CLK3 (human)", "value": "> 10", "unit": "µM"}, {"measurement": "Kd", "setting": "LYN (human)", "value": "> 10", "unit": "µM"}, {"measurement": "Kd", "setting": "FLT3 (human)", "value": "> 10", "unit": "µM"}, {"measurement": "Kd", "setting": "[4]", "value": "> 10", "unit": "µM"}, {"measurement": "Kd", "setting": "PKMYT1 (human)", "value": "> 10", "unit": "µM"}, {"measurement": "Kd", "setting": "MYLK2 (human)", "value": "> 10", "unit": "µM"}, {"measurement": "Kd", "setting": "EPHA2 (human)", "value": "> 10", "unit": "µM"}, {"measurement": "Kd", "setting": "[5]", "value": "> 10", "unit": "µM"}, {"measurement": "Kd", "setting": "STK10 (human)", "value": "> 10", "unit": "µM"}, {"measurement": "Kd", "setting": "ERBB2 (human)", "value": "> 10", "unit": "µM"}, {"measurement": "Kd", "setting": "STK17B (human)", "value": "> 10", "unit": "µM"}, {"measurement": "Kd", "setting": "NEK6 (human)", "value": "> 10", "unit": "µM"}, {"measurement": "Kd", "setting": "CSK (human)", "value": "> 10", "unit": "µM"}, {"measurement": "Kd", "setting": "CAMK1 (human)", "value": "> 10", "unit": "µM"}, {"measurement": "Kd", "setting": "EPHA4 (human)", "value": "> 10", "unit": "µM"}, {"measurement": "Kd", "setting": "MAP3K5 (human)", "value": "> 10", "unit": "µM"}, {"measurement": "Kd", "setting": "PHKG1 (human)", "value": "> 10", "unit": "µM"}]}, {"smiles": "Oc1ccc(-c2nc(-c3ccc(F)cc3)c(-c3ccncc3)[nH]2)cc1", "values": [{"measurement": "Kd", "setting": "PAK7 (human)", "value": "> 10", "unit": "µM"}, {"measurement": "Kd", "setting": "PRKACA (human)", "value": "> 10", "unit": "µM"}, {"measurement": "Kd", "setting": "EPHA7 (human)", "value": "> 10", "unit": "µM"}, {"measurement": "Kd", "setting": "TNK2 (human)", "value": "> 10", "unit": "µM"}, {"measurement": "Kd", "setting": "CSNK1G1 (human)", "value": "> 10", "unit": "µM"}, {"measurement": "Kd", "setting": "ABL1 (human)", "value": "> 10", "unit": "µM"}, {"measurement": "Kd", "setting": "PIM1 (human)", "value": "> 10", "unit": "µM"}, {"measurement": "Kd", "setting": "PDGFRB (human)", "value": "> 10", "unit": "µM"}, {"measurement": "Kd", "setting": "LCK (human)", "value": "> 10", "unit": "µM"}, {"measurement": "Kd", "setting": "ABL2 (human)", "value": "> 10", "unit": "µM"}, {"measurement": "Kd", "setting": "SRC (human)", "value": "> 10", "unit": "µM"}, {"measurement": "Kd", "setting": "CAMK2G (human)", "value": "> 10", "unit": "µM"}, {"measurement": "Kd", "setting": "CAMK2A (human)", "value": "> 10", "unit": "µM"}, {"measurement": "Kd", "setting": "FYN (human)", "value": "> 10", "unit": "µM"}, {"measurement": "Kd", "setting": "KDR (human)", "value": "> 10", "unit": "µM"}, {"measurement": "Kd", "setting": "LIMK1 (human)", "value": "> 10", "unit": "µM"}, {"measurement": "Kd", "setting": "[1]", "value": "> 10", "unit": "µM"}, {"measurement": "Kd", "setting": "PAK6 (human)", "value": "> 10", "unit": "µM"}, {"measurement": "Kd", "setting": "NEK2 (human)", "value": "> 10", "unit": "µM"}, {"measurement": "Kd", "setting": "CAMKK1 (human)", "value": "> 10", "unit": "µM"}, {"measurement": "Kd", "setting": "NTRK1 (human)", "value": "> 10", "unit": "µM"}, {"measurement": "Kd", "setting": "FGFR2 (human)", "value": "> 10", "unit": "µM"}, {"measurement": "Kd", "setting": "CLK1 (human)", "value": "> 10", "unit": "µM"}, {"measurement": "Kd", "setting": "[2]", "value": "> 10", "unit": "µM"}, {"measurement": "Kd", "setting": "[3]", "value": "> 10", "unit": "µM"}, {"measurement": "Kd", "setting": "CLK3 (human)", "value": "> 10", "unit": "µM"}, {"measurement": "Kd", "setting": "LYN (human)", "value": "> 10", "unit": "µM"}, {"measurement": "Kd", "setting": "FLT3 (human)", "value": "> 10", "unit": "µM"}, {"measurement": "Kd", "setting": "[4]", "value": "> 10", "unit": "µM"}, {"measurement": "Kd", "setting": "PKMYT1 (human)", "value": "> 10", "unit": "µM"}, {"measurement": "Kd", "setting": "MYLK2 (human)", "value": "> 10", "unit": "µM"}, {"measurement": "Kd", "setting": "EPHA2 (human)", "value": "> 10", "unit": "µM"}, {"measurement": "Kd", "setting": "[5]", "value": "> 10", "unit": "µM"}, {"measurement": "Kd", "setting": "STK10 (human)", "value": "> 10", "unit": "µM"}, {"measurement": "Kd", "setting": "ERBB2 (human)", "value": "> 10", "unit": "µM"}, {"measurement": "Kd", "setting": "STK17B (human)", "value": "> 10", "unit": "µM"}, {"measurement": "Kd", "setting": "NEK6 (human)", "value": "> 10", "unit": "µM"}, {"measurement": "Kd", "setting": "CSK (human)", "value": "> 10", "unit": "µM"}, {"measurement": "Kd", "setting": "CAMK1 (human)", "value": "> 10", "unit": "µM"}, {"measurement": "Kd", "setting": "EPHA4 (human)", "value": "> 10", "unit": "µM"}, {"measurement": "Kd", "setting": "MAP3K5 (human)", "value": "> 10", "unit": "µM"}, {"measurement": "Kd", "setting": "PHKG1 (human)", "value": "> 10", "unit": "µM"}]}]}
